The source of these data is patent US7932262B2 (Novartis AG, priority 2006, dated 2011).

pEC50, pIC50: −log10 of the molar value. Bounds are passed on as bounds.

One test has as its target T1, PDK1 kinase (Homo sapiens, UniProt O15530).
T1 sequence (O15530 1-556): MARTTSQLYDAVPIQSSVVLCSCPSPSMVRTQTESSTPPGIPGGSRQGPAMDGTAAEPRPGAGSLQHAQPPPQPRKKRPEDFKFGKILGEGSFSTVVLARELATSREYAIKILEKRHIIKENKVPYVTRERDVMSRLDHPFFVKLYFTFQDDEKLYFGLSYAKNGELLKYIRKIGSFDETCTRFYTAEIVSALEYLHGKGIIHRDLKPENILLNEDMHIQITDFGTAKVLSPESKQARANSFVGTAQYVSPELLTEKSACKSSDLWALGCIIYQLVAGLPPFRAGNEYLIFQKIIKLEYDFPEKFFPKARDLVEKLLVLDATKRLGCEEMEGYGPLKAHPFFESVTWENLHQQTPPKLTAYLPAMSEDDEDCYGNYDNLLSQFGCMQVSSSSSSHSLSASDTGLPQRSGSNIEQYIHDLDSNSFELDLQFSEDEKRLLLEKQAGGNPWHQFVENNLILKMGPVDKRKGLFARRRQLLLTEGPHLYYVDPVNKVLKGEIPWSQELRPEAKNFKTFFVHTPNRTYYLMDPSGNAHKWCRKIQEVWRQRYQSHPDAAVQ
The test is described as follows: PDK1 Kinase Alpha Screen Assay. In kind it is biochemical. The settings on record: PDK1 Kinase Alpha Screen Assay; read-out: PDK1 IC50. In a few lines: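 PDK1 phosphorylated 50 nM biotinylated PDK1-4 peptide with 10 uM ATP in Tris pH 7.5, 10 mM MgCl2, 2 mM DTT, 2.5% DMSO for 3-18 hours. After EDTA stop, phosphopeptide was detected by AlphaScreen using phospho-(Ser/Thr) PKA substrate antibody with protein A/streptavidin beads, read after overnight incubation.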

For another test, the system named is PC-3 cells. As to the kind of experiment: Cell Proliferation Assay (Cell Titer Glo), PC-3 cell line. The settings on record: Homo sapiens, PC-3, Cell Proliferation Assay, PC3; read-out: CPEC50 PC3. In kind it is cell-based. In a few lines:
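PC-3 cells, 1000 cells/well, left to adhere 3-5 h, then exposed for 3 days at 37° C to compounds as 1:3 serial dilutions from 500× DMSO stocks diluted in growth medium. Medium then replaced with fresh medium and viability read by Cell Titer Glo luminescence.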
Background: In ATP-based viability assays light output follows the ATP content of the culture.

For the molecule `CN1CCN(C(=O)c2cc(F)cc(Nc3ncc4cccc(OC5CCNCC5)c4n3)c2)CC1` [Compound 463, (3-fluoro-5-(8-(piperidin-4-yloxy)quinazolin-2-ylamino)phenyl)(4-methylpiperazin-1-yl)methanone], the pIC50 (usually the IC50 on a negative log10 scale, so that one unit is a factor of ten) at PDK1 kinase is above 5.30. For the same molecule, in the test with PC-3 cells, the pEC50 was above 5.30.

Consider `Cc1ccc(OC2CCNCC2)c2nc(Nc3ccc(S(N)(=O)=O)cc3)ncc12` [Compound 464, 4-(5-methyl-8-(piperidin-4-yloxy)quinazolin-2-ylamino)benzenesulfonamide], for which the negative logarithm of the IC50 (pIC50) at PDK1 kinase is above 5.30. Also, in the test on PC-3 cells, the pEC50 was 5.00 to 5.30.

Consider `c1cc(CN2CCOCC2)cc(Nc2ncc3cccc(-c4ccc(NCCN5CCCC5)nc4)c3n2)c1` [Compound 465, N-(3-(morpholinomethyl)phenyl)-8-(6-(2-(pyrrolidin-1-yl)ethylamino)pyridin-3-yl)quinazolin-2-amine], for which, at PDK1 kinase, the pIC50 was above 5.30. Also, the pEC50 in the test with PC-3 cells is above 5.30.

With `CN1CCN(c2ccc(-c3cccc4cnc(Nc5ccc(N6CCOCC6)c(Cl)c5)nc34)cn2)CC1` [Compound 466, N-(3-chloro-4-morpholinophenyl)-8-(6-(4-methylpiperazin-1-yl)pyridin-3-yl)quinazolin-2-amine], the pIC50 at PDK1 kinase is above 5.30. The pEC50 in the test on PC-3 cells was above 5.30.

As to `CN1CCN(c2ccc(-c3cccc4cnc(Nc5cc(C(=O)O)cc(C(F)(F)F)c5)nc34)cn2)CC1` [Compound 467, 3-(8-(6-(4-methylpiperazin-1-yl)pyridin-3-yl)quinazolin-2-ylamino)-5-(trifluoromethyl)benzoic acid], the negative logarithm of the IC50 (pIC50) on PDK1 kinase is above 5.30. Also, the pEC50 in the test with PC-3 cells was above 5.30.

Consider `CN1CCN(c2ccc(-c3cccc4cnc(Nc5cc(C(=O)N6CCCC6)cc(C(F)(F)F)c5)nc34)cn2)CC1` [Compound 468, (3-(8-(6-(4-methylpiperazin-1-yl)pyridin-3-yl)quinazolin-2-ylamino)-5-(trifluoromethyl)phenyl)(pyrrolidin-1-yl)methanone], for which the negative logarithm of the IC50 (pIC50) on PDK1 kinase is 5.00 to 5.30. Moreover, in the test with PC-3 cells, the pEC50 is above 5.30.

As to `C#Cc1ccc(OC2CCNCC2)c2nc(Nc3ccc(S(N)(=O)=O)cc3)ncc12` [Compound 469, 4-(5-ethynyl-8-(piperidin-4-yloxy)quinazolin-2-ylamino)benzenesulfonamide], at PDK1 kinase, the negative logarithm of the IC50 (pIC50) was above 5.30. Moreover, the pEC50 in the test on PC-3 cells is 5.00 to 5.30.

For the molecule `c1cc(OC2CCNCC2)c2nc(Nc3ccc(N4CCOCC4)nc3)ncc2c1` [Compound 470, N-(6-morpholinopyridin-3-yl)-8-(piperidin-4-yloxy)quinazolin-2-amine], at PDK1 kinase, the negative-log IC50 (pIC50) was above 5.30. The pEC50 with PC-3 cells was above 5.30.

Turning to `Clc1cc(Nc2ncc3cccc(OC4CCNCC4)c3n2)ccc1N1CCOCC1` [Compound 471, N-(3-chloro-4-morpholinophenyl)-8-(piperidin-4-yloxy)quinazolin-2-amine], the pIC50 on PDK1 kinase was above 5.30. Also, in the test on PC-3 cells, the pEC50 is above 5.30.

Take `O=C(O)c1cc(Nc2ncc3cccc(OC4CCNCC4)c3n2)ccc1F` [Compound 472, 2-fluoro-5-(8-(piperidin-4-yloxy)quinazolin-2-ylamino)benzoic acid]: the pIC50 on PDK1 kinase was above 5.30. In the test on PC-3 cells, the pEC50 was 5.00 to 5.30.

For the molecule `CN(C)C(=O)c1cc(Nc2ncc3cccc(OC4CCNCC4)c3n2)ccc1F` [Compound 473, 2-fluoro-N,N-dimethyl-5-(8-(piperidin-4-yloxy)quinazolin-2-ylamino)benzamide], the pIC50 at PDK1 kinase is above 5.30. Further, in the test with PC-3 cells, the pEC50 was above 5.30.

`CC(C)NC(=O)c1cc(Nc2ncc3cccc(OC4CCNCC4)c3n2)ccc1F` [Compound 474, 2-fluoro-N-isopropyl-5-(8-(piperidin-4-yloxy)quinazolin-2-ylamino)benzamide]: the pIC50 at PDK1 kinase was above 5.30. In addition, the pEC50 in the test with PC-3 cells was above 5.30.

As for `O=C(c1cc(Nc2ncc3cccc(OC4CCNCC4)c3n2)ccc1F)N1CCOCC1` [Compound 475, (2-fluoro-5-(8-(piperidin-4-yloxy)quinazolin-2-ylamino)phenyl)(morpholino)methanone], on PDK1 kinase, the pIC50 was above 5.30. In addition, in the test with PC-3 cells, the pEC50 was 5.00 to 5.30.

Turning to `O=C(NC1CCOCC1)c1cc(Nc2ncc3cccc(OC4CCNCC4)c3n2)ccc1F` [Compound 476, 2-fluoro-5-(8-(piperidin-4-yloxy)quinazolin-2-ylamino)-N-(tetrahydro-2H-pyran-4-yl)benzamide], at PDK1 kinase, the pIC50 was above 5.30. Besides, in the test on PC-3 cells, the pEC50 is above 5.30.

As to `O=C(c1ccc(Nc2ncc3cccc(OC4CCNCC4)c3n2)cc1F)N1CCCC1` [Compound 477, (2-fluoro-4-(8-(piperidin-4-yloxy)quinazolin-2-ylamino)phenyl)(pyrrolidin-1-yl)methanone], the negative logarithm of the IC50 (pIC50) at PDK1 kinase was above 5.30. The pEC50 with PC-3 cells was above 5.30.

On to `CN1CCN(C(=O)c2ccc(Nc3ncc4cccc(OC5CCNCC5)c4n3)cc2F)CC1` [Compound 478, (2-fluoro-4-(8-(piperidin-4-yloxy)quinazolin-2-ylamino)phenyl)(4-methylpiperazin-1-yl)methanone], for which the pIC50 at PDK1 kinase is above 5.30. For the same molecule, in the test with PC-3 cells, the pEC50 was above 5.30.

Consider `c1ccc(Nc2ncc3cccc(OC4CCNCC4)c3n2)cc1` [Compound 479, N-phenyl-8-(piperidin-4-yloxy)quinazolin-2-amine], for which, on PDK1 kinase, the pIC50 was above 5.30. Besides, in the test with PC-3 cells, the pEC50 is above 5.30.

As to `Fc1cccc(Nc2ncc3cccc(OC4CCNCC4)c3n2)c1` [Compound 480, N-(3-fluorophenyl)-8-(piperidin-4-yloxy)quinazolin-2-amine], the pIC50 on PDK1 kinase is above 5.30. Further, the pEC50 with PC-3 cells is above 5.30.

Regarding `O=C(O)c1ccc(Nc2ncc3cccc(OC4CCNCC4)c3n2)cc1Cl` [Compound 481, 2-chloro-4-(8-(piperidin-4-yloxy)quinazolin-2-ylamino)benzoic acid], the pIC50 at PDK1 kinase is above 5.30. For the same molecule, in the test on PC-3 cells, the pEC50 is 5.00 to 5.30.

On to `CC(C)NC(=O)c1ccc(Nc2ncc3cccc(OC4CCNCC4)c3n2)cc1Cl` [Compound 482, 2-chloro-N-isopropyl-4-(8-(piperidin-4-yloxy)quinazolin-2-ylamino)benzamide], for which, at PDK1 kinase, the pIC50 is above 5.30. Also, the pEC50 in the test on PC-3 cells is above 5.30.

For `O=C(c1ccc(Nc2ncc3cccc(OC4CCNCC4)c3n2)cc1Cl)N1CCOCC1` [Compound 483, (2-chloro-4-(8-(piperidin-4-yloxy)quinazolin-2-ylamino)phenyl)(morpholino)methanone], the pIC50 at PDK1 kinase is above 5.30. Besides, in the test with PC-3 cells, the pEC50 is above 5.30.

Consider `Fc1ccc(Nc2ncc3cccc(OC4CCNCC4)c3n2)cc1Br` [Compound 484, N-(3-bromo-4-fluorophenyl)-8-(piperidin-4-yloxy)quinazolin-2-amine], for which the negative logarithm of the IC50 (pIC50) on PDK1 kinase was above 5.30. For the same molecule, the pEC50 in the test with PC-3 cells is above 5.30.

As for `O=C(NC1CC1)c1ccc(Nc2ncc3cccc(OC4CCNCC4)c3n2)cc1Cl` [Compound 485, 2-chloro-N-cyclopropyl-4-(8-(piperidin-4-yloxy)quinazolin-2-ylamino)benzamide], the pIC50 at PDK1 kinase was above 5.30. Besides, the pEC50 in the test on PC-3 cells is above 5.30.

Regarding `COCCNC(=O)c1ccc(Nc2ncc3cccc(OC4CCNCC4)c3n2)cc1Cl` [Compound 486, 2-chloro-N-(2-methoxyethyl)-4-(8-(piperidin-4-yloxy)quinazolin-2-ylamino)benzamide], the pIC50 at PDK1 kinase is above 5.30. Also, the pEC50 in the test on PC-3 cells was above 5.30.

Take `Fc1ccc(Nc2ncc3cccc(OC4CCNCC4)c3n2)cc1C1=CCNCC1` [Compound 487, N-(4-fluoro-3-(1,2,3,6-tetrahydropyridin-4-yl)phenyl)-8-(piperidin-4-yloxy)quinazolin-2-amine]: the negative logarithm of the IC50 (pIC50) at PDK1 kinase was above 5.30. The pEC50 in the test with PC-3 cells is above 5.30.

As for `O=C(O)c1ccc(Nc2ncc3cccc(OC4CCNCC4)c3n2)cc1` [Compound 488, 4-(8-(piperidin-4-yloxy)quinazolin-2-ylamino)benzoic acid], on PDK1 kinase, the pIC50 is above 5.30. Besides, the pEC50 in the test on PC-3 cells is above 5.30.

For `N#Cc1ccc(Nc2ncc3cccc(OC4CCNCC4)c3n2)cc1` [Compound 489, 4-(8-(piperidin-4-yloxy)quinazolin-2-ylamino)benzonitrile], at PDK1 kinase, the negative-log IC50 (pIC50) was above 5.30. Further, the pEC50 in the test with PC-3 cells was above 5.30.

Regarding `O=C(NC1CC1)c1ccc(Nc2ncc3cccc(OC4CCNCC4)c3n2)cc1` [Compound 490, N-cyclopropyl-4-(8-(piperidin-4-yloxy)quinazolin-2-ylamino)benzamide], the pIC50 on PDK1 kinase was above 5.30. The pEC50 in the test on PC-3 cells is above 5.30.

Consider `CC(C)NC(=O)c1ccc(Nc2ncc3cccc(OC4CCNCC4)c3n2)cc1` [Compound 491, N-isopropyl-4-(8-(piperidin-4-yloxy)quinazolin-2-ylamino)benzamide], for which, on PDK1 kinase, the negative logarithm of the IC50 (pIC50) is above 5.30. Also, the pEC50 in the test on PC-3 cells was above 5.30.

With `COCCNC(=O)c1ccc(Nc2ncc3cccc(OC4CCNCC4)c3n2)cc1` [Compound 492], the pIC50 on PDK1 kinase is above 5.30. Moreover, in the test with PC-3 cells, the pEC50 is above 5.30.
